Reference: ChEMBL document CHEMBL1148343, “Fragment-based drug discovery” (J Med Chem, 2004)

How the values were obtained:
[1] = target: DNA topoisomerase 2-beta (Homo sapiens) (UniProt Q02880); experiment: (§1) Maximal non-effective concentration against bacterial DNA gyrase
Nucleic Acid = experiment: as §1; assay type: nucleic-acid assay
[2] = target: Matrix metalloproteinase-9 (Homo sapiens) (UniProt P14780); experiment: Inhibition of gelatinase B, matrix metalloprotease-9 (MMP-9) at 5000 uM
Matrix metalloproteinase-9 (Homo sapiens), sequence (P14780 whole entry): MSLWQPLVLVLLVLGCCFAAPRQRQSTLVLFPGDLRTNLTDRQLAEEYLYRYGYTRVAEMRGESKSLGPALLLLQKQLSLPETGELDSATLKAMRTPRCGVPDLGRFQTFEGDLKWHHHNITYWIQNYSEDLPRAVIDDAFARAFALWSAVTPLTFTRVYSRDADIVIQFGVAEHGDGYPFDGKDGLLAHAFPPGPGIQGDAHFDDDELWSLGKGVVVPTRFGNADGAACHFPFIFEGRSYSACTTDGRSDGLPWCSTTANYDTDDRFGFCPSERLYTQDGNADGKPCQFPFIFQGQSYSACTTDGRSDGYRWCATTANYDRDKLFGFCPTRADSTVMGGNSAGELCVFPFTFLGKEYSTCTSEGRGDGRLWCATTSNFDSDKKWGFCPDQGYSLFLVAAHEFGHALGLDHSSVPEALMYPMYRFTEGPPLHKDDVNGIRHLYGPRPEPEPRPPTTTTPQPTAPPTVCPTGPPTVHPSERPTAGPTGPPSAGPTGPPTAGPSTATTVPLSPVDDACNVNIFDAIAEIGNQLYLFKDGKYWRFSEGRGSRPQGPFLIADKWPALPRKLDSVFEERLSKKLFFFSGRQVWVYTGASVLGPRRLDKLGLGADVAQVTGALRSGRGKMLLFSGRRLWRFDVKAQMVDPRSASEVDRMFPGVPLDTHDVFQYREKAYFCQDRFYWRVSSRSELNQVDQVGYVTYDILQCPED

DNA topoisomerase 2-beta (Homo sapiens), sequence (Q02880 whole entry): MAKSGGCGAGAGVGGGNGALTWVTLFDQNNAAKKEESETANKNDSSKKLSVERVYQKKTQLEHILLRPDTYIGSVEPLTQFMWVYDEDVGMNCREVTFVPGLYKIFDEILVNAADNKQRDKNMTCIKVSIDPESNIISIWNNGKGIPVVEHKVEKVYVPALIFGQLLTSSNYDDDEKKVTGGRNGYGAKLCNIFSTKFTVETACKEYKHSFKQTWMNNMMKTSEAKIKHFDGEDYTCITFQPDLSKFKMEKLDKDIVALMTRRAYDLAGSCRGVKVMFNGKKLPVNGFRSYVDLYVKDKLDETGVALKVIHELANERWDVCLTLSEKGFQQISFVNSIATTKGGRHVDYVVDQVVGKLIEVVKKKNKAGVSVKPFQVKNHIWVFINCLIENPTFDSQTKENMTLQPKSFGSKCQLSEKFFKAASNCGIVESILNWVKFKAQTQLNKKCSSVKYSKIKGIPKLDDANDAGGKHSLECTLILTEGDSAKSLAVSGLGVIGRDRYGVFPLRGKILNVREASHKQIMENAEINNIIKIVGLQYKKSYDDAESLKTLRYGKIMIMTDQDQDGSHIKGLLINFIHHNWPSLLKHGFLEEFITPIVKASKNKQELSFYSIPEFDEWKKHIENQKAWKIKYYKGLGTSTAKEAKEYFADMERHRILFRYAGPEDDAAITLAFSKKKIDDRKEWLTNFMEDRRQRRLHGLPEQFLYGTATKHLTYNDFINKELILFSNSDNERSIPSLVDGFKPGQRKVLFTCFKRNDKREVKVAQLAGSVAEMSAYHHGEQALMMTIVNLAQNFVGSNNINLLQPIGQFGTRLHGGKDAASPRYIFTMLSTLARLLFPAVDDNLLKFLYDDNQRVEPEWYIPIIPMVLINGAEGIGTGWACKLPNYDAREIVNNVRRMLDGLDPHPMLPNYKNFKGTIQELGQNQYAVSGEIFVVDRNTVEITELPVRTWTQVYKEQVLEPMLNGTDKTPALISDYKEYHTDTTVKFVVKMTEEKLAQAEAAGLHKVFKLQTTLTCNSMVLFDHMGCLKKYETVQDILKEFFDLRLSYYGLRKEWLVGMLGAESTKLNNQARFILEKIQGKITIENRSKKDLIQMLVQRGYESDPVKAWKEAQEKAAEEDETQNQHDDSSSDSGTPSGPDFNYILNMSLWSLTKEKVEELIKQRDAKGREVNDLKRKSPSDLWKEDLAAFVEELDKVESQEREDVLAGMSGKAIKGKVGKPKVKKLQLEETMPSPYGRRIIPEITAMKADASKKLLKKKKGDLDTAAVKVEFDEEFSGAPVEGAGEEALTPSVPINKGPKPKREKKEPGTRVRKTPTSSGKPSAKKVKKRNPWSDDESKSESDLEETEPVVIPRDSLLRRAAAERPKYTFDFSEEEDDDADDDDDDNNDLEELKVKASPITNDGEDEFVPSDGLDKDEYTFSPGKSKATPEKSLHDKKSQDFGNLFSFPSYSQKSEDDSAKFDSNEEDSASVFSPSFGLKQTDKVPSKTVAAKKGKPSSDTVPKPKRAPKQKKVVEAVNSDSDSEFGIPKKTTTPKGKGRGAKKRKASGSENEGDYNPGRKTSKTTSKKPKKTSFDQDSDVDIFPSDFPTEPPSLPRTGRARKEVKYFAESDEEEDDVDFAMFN

Cc1cc(=O)oc2cc(SCc3n[nH]c4cccc(OCc5ccc(C(C)(C)C)cc5)c34)ccc12
MNEC [1]: 0.062 µM

Cc1cc(=O)oc2cc(SCc3n[nH]c4ccccc34)ccc12
MNEC (Nucleic Acid): 25 µM

c1ccc(-c2[nH]nc3ccccc23)cc1
MNEC (Nucleic Acid): 41 µM

NCc1nc2ccccc2[nH]1
inhibition [2]: 65%
